From patent US20200037600A1, “MESOIONIC IMIDAZOPYRIDINES AS INSECTICIDES” (Bayer Aktiengesellschaft, priority 2017, published 2020) come the findings set out here.

Broadly, the chromatographic logP is a lipophilicity value derived from retention on a column. Higher therefore signals higher lipophilicity.

SMILES strings stand for the structures.

The subject of data set [1] is Ctenocephalides felis. Put plainly: Ctenocephalides felis in vitro contact test with adult cat fleas. As to conditions: application rate 5 μg/cm^2 (=500 g/ha), after 48 h. The data set is classed as in vivo. How it is done:
Ctenocephalides felis—In Vitro Contact Tests with Adult Cat Fleas
(§1) For the coating of the test tubes, 9 mg of active compound are first dissolved in 1 ml of acetone p.a. and then diluted to the desired concentration with acetone p.a. 250 μl of the solution are distributed homogeneously on the inner walls and the base of a 25 ml glass tube by turning and rocking on an orbital shaker (rocking rotation at 30 rpm for 2 h). With 900 ppm of active compound solution and internal surface area 44.7 cm^2, given homogeneous distribution, an area-based dose of 5 μg/cm^2 is achieved.
After the solvent has evaporated off, the tubes are populated with 5-10 adult cat fleas (Ctenocephalides felis), sealed with a perforated plastic lid and incubated in a horizontal position at room temperature and ambient humidity. After 48 h, efficacy is determined. To this end, the tubes are stood upright and the fleas are knocked to the base of the tube. Fleas which remain motionless at the base or move in an uncoordinated manner are considered to be dead or moribund.
100% efficacy means that all the fleas were dead or moribund. 0% efficacy means that no fleas were harmed.

The test system of the next data set is Rhipicephalus sanguineus. Kind of data set: Rhipicephalus sanguineus in vitro contact test with adults of the brown dog tick. The data set is classed as in vivo. As to conditions: application rate 5 μg/cm^2 (=500 g/ha), adult dog ticks, after 48 h. How it is done: Rhipicephalus sanguineus—In Vitro Contact Tests with Adults of the Brown Dog Tick
as §1
After the solvent has evaporated off, the tubes are populated with 5-10 adult dog ticks (Rhipicephalus sanguineus), sealed with a perforated plastic lid and incubated in the dark in a horizontal position at room temperature and ambient humidity. After 48 h, efficacy is determined. To this end, the ticks are knocked to the base of the tube and, incubated on a heating plate at 45-50° C. for a maximum of 5 minutes. Ticks which remain motionless at the base or move in such an uncoordinated manner that they cannot purposely escape the heat by climbing upward are considered to be dead or moribund.
100% efficacy means that all the ticks were dead or moribund. 0% efficacy means that no ticks were harmed.

Data set [2] relates to Ctenocephalides felis. Kind of data set: Ctenocephalides felis oral test. It is filed as in vivo. As to conditions: application rate 100 ppm in citrated cattle blood; adult cat fleas; after 2 days. How it is done: Ctenocephalides felis—Oral Test
(§2) Solvent: dimethyl sulfoxide
To produce a suitable active compound formulation, 10 mg of active compound are mixed with 0.5 ml of dimethyl sulfoxide. Dilution with citrated cattle blood gives the desired concentration.
About 20 unfed adult cat fleas (Ctenocephalides felis) are placed into a chamber which is closed at the top and bottom with gauze. A metal cylinder whose bottom end is closed with parafilm is placed onto the chamber. The cylinder contains the blood/active compound formulation, which can be imbibed by the fleas through the parafilm membrane.
After 2 days, the kill in % is determined. 100% means that all of the fleas have been killed; 0% means that none of the fleas have been killed.

The next data set has as its system Lucilia cuprina. Kind of data set: Lucilia cuprina test. The data set is classed as in vivo. As to conditions: application rate 100 ppm; L1 larvae; after 2 days. How it is done: as §2
(§3) To produce a suitable active compound formulation, 10 mg of active compound are mixed with 0.5 ml of dimethyl sulfoxide, and the concentrate is diluted with water to the desired concentration.
About 20 L1 larvae of the Australian sheep blowfly (Lucilia cuprina) are transferred into a test vessel containing minced horsemeat and the active compound formulation of the desired concentration.
After 2 days, the kill in % is determined. 100% means that all the larvae have been killed; 0% means that no larvae have been killed.

For a further data set, the system named is Diabrotica balteata. Put plainly: Diabrotica balteata spray test. It is filed as in vivo. As to conditions: application rate 160 μg/well, beetle larvae on germinated wheat grains, after 7 days; for pest or weed control at 160 µg/disc, 160 µg/well: Diabrotica balteata, 168 h, read-out: efficacy. How it is done:
Diabrotica balteata—Spray Test
(§4) Solvent: 78 parts by weight of acetone • • 1.5 parts by weight of dimethylformamide
(§5) Emulsifier: alkylaryl polyglycol ether
(§6) To produce a suitable active compound formulation, 1 part by weight of active compound is dissolved with the specified parts by weight of solvent and made up to the desired concentration with water containing an emulsifier concentration of 1000 ppm. To produce further test concentrations, the formulation is diluted with emulsifier-containing water.
Pre-swollen wheat grains (Triticum aestivum) are incubated in a multiwell plate filled with agar and a little water for one day (5 seed grains per well). The germinated wheat grains are sprayed with an active compound preparation of the desired concentration. Subsequently, each cavity is infected with 10-20 beetle larvae of Diabrotica balteata.
After 7 days, the efficacy in % is determined. 100% means that all maize plants have grown as in the untreated, uninfected control; 0% means that no maize plant has grown.

The subject of data set [3] is Myzus persicae. Put plainly: Myzus persicae oral test. The data set is classed as in vivo. As to conditions: after 5 days; for pest or weed control at 4 ppm: Myzus persicae, po, 120 h, read-out: efficacy. How it is done:
Solvent: 100 parts by weight of acetone
To produce a suitable active compound formulation, 1 part by weight of active compound is dissolved with the stated parts by weight of solvent and made up to the desired concentration with water.
50 μl of the active compound formulation are transferred into microtitre plates and made up to a final volume of 200 μl with 150 μl of IPL41 insect medium (33%+15% sugar). Subsequently, the plates are sealed with parafilm, which a mixed population of green peach aphids (Myzus persicae) within a second microtitre plate is able to puncture and imbibe the solution.
(§7) After 5 days, the efficacy in % is determined. 100% means that all the aphids have been killed; 0% means that no aphids have been killed.

Data set [4] concerns Myzus persicae. Kind of data set: Myzus persicae spray test. As to conditions: application rate 500 g/ha, Chinese cabbage leaf discs, after 5 days; for pest or weed control at 500 g/ha: Myzus persicae, foliar, 120 h, read-out: efficacy. The data set is classed as in vivo. How it is done: Myzus persicae—Spray Test
as §4, §5, §6
Discs of Chinese cabbage leaves (Brassica pekinensis) infested by all stages of the green peach aphid (Myzus persicae) are sprayed with an active compound formulation of the desired concentration.
as §7

Another data set concerns Phaedon cochleariae. Put plainly: Phaedon cochleariae spray test. It is filed as in vivo. As to conditions: foliar, 168 h, application rate 500 g/ha, larvae on Chinese cabbage leaf discs, after 7 days, read-out: efficacy. How it is done: Phaedon cochleariae—Spray Test
(§8) Solvent: 78.0 parts by weight of acetone • • 1.5 parts by weight of dimethylformamide
as §5, §6
Discs of Chinese cabbage leaves (Brassica pekinensis) are sprayed with an active compound formulation of the desired concentration and, after drying, populated with larvae of the mustard beetle (Phaedon cochleariae).
After 7 days, the efficacy in % is determined. 100% means that all the beetle larvae have been killed; 0% means that no beetle larvae have been killed.

The next data set concerns Spodoptera frugiperda. Put plainly: Spodoptera frugiperda spray test. It is filed as in vivo. As to conditions: application rate 500 g/ha; caterpillars on maize leaf discs; after 7 days. How it is done:
Spodoptera frugiperda—Spray Test
as §8, §5, §6
Leaf discs of maize (Zea mays) are sprayed with an active compound formulation of the desired concentration and, after drying, populated with caterpillars of the fall armyworm (Spodoptera frugiperda).
After 7 days, the efficacy in % is determined. 100% means that all the caterpillars have been killed; 0% means that no caterpillar has been killed.

Data set [5] is described as follows: log P by HPLC (EEC directive 79/831 Annex V.A8). The data set is classed as physicochemical. How it is done: The log P values reported in the tables and preparation examples above were determined in accordance with EEC directive 79/831 Annex V.A8 by HPLC (High Performance Liquid Chromatography) using a reversed-phase column (C18). Temperature 43° C. The calibration is effected with unbranched alkan-2-ones (having 3 to 16 carbon atoms), for which the log P values are known.

A further data set concerns Tetranychus urticae. Put plainly: Tetranychus urticae spray test, OP-resistant. It is filed as in vivo. As to conditions: application rate 500 g/ha, bean leaf discs, after 6 days. How it is done:
Tetranychus urticae—Spray Test, OP-Resistant
as §8, §5, §6
Discs of bean leaves (Phaseolus vulgaris) infested by all stages of the red spider mite (Tetranychus urticae) are sprayed with an active compound formulation of the desired concentration.
After 6 days, the efficacy in % is determined. 100% means that all the spider mites have been killed; 0% means that no spider mites have been killed.

Another data set has as its system Musca domestica. Kind of data set: Musca domestica test. The data set is classed as in vivo. As to conditions: application rate 100 ppm; adult houseflies; after 2 days. How it is done: as §2, §3
Vessels containing a sponge treated with sugar solution and the active compound formulation of the desired concentration are populated with 10 adult houseflies (Musca domestica).
After 2 days, the kill in % is determined. 100% means that all of the flies have been killed; 0% means that none of the flies have been killed.

On to `Cc1ccc[n+]2c([O-])c(C(=O)C(F)(F)F)n(Cc3cnc(Cl)s3)c12` [Example I-024, 1-[(2-Chlorothiazol-5-yl)methyl]-8-methyl-2-(2,2,2-trifluoroacetyl)imidazo[1,2-a]pyridin-4-ium-3-olate], for which the results for the efficacy in the data set on Ctenocephalides felis [1], in the data set on Rhipicephalus sanguineus and in the data set on Spodoptera frugiperda were 100%, 100% and 83%, respectively. In addition, the “efficacy (kill in %)” value in the data set on Ctenocephalides felis [2] is reported as 90%; in the data set with Lucilia cuprina, 100%. The pest or weed control at 160 µg/disc, 160 µg/well in the data set with Diabrotica balteata came to 100%. In the data set with Myzus persicae [3] (application rate 4 ppm), the pest or weed control at 4 ppm was determined as 100%. The figures for the pest or weed control at 500 g/ha in the data set with Myzus persicae [4] and in the data set on Phaedon cochleariae were 90% and 100%, respectively. Moreover, in [5], the chromatographic logP is 2.07.

Take `Cc1ccc[n+]2c([O-])c(C(=O)C(=O)OCC3CCC3)n(Cc3cnc(Cl)s3)c12` [Example I-046]: the pest or weed control at 160 µg/disc, 160 µg/well with Diabrotica balteata stood at 100%. Also, the pest or weed control at 4 ppm with Myzus persicae [3] (application rate 4 ppm) stood at 100%. Besides, the pest or weed control at 500 g/ha with Myzus persicae [4] came out at 90%; in the data set with Phaedon cochleariae, 100%. The efficacy in the data set with Spodoptera frugiperda was 83%.

Take `CCN(CC)C(=O)C(=O)c1c([O-])[n+]2ccccc2n1Cc1cnc(Cl)s1` [Example I-040]: the values for the efficacy in the data set on Myzus persicae [4] and in the data set with Tetranychus urticae were 90% and 100%, respectively.

For the compound `O=C(c1c([O-])[n+]2ccccc2n1Cc1cnc(Cl)s1)C(F)(F)Cl` [Example I-019], the efficacy with Ctenocephalides felis [1], with Diabrotica balteata, in the data set on Myzus persicae [3] (application rate 4 ppm), with Myzus persicae [4] and in the data set on Spodoptera frugiperda was 100% in each case. For the same compound, the entries for the “efficacy (kill in %)” value in the data set with Ctenocephalides felis [2], with Lucilia cuprina and with Musca domestica were 95%, 95% and 80%, respectively.

For `O=C(OCC1CCC1)C(=O)c1c([O-])[n+]2ccccc2n1Cc1cnc(Cl)s1` [Example I-039], the figures for the efficacy in the data set with Myzus persicae [3] (application rate 4 ppm), in the data set with Myzus persicae [4] and in the data set on Tetranychus urticae were 100%, 90% and 90%, respectively.

In turn, `CCOC(=O)C(=O)c1c([O-])[n+]2cccc(C)c2n1Cc1cnc(Cl)s1` [Example I-033] returned an efficacy in the data set with Ctenocephalides felis [1] of 100%. Besides, the “efficacy (kill in %)” value in the data set on Ctenocephalides felis [2] is 95%; in the data set on Musca domestica it was 100%. The pest or weed control at 160 µg/disc, 160 µg/well in the data set with Diabrotica balteata worked out at 100%. In addition, in the data set on Myzus persicae [3] (application rate 4 ppm), the pest or weed control at 4 ppm turned out to be 100%. Also, the pest or weed control at 500 g/ha with Myzus persicae [4] was 90%.

As to `O=C(c1c([O-])[n+]2ccccc2n1Cc1cnc(Cl)s1)C(F)(F)F` [Example I-007], the efficacy in the data set on Ctenocephalides felis [1], in the data set with Diabrotica balteata, in the data set with Myzus persicae [3] (application rate 4 ppm), with Myzus persicae [3] (application rate 20 ppm) and in the data set with Myzus persicae [4] was 100% in each case. Further, the “efficacy (kill in %)” value worked out at 95% in the data set with Ctenocephalides felis [2], 85% in the data set on Lucilia cuprina and 90% with Musca domestica.

With `CCC(C)OC(=O)C(=O)c1c([O-])[n+]2ccccc2n1Cc1cnc(Cl)s1` (centres unmarked) [Example I-037], the “efficacy (kill in %)” value in the data set with Lucilia cuprina is on record as 95%; with Musca domestica, 100%. For the same compound, the efficacy in the data set on Diabrotica balteata is given as 100%; in the data set with Myzus persicae [3] (application rate 4 ppm), 100%; in the data set with Myzus persicae [4], 100%; in the data set on Tetranychus urticae, 90%.

Consider `CN(C)C(=O)C(=O)c1c([O-])[n+]2ccccc2n1Cc1cnc(Cl)s1` [Example I-041], for which the efficacy in the data set with Tetranychus urticae is given as 90%.

As for `CC(C)OC(=O)C(=O)c1c([O-])[n+]2ccccc2n1Cc1cnc(Cl)s1` [Example I-038], the efficacy amounted to 100% in the data set on Rhipicephalus sanguineus, 80% in the data set with Rhipicephalus sanguineus (listed as 1-038), 100% in the data set on Myzus persicae [3] (application rate 4 ppm) and 90% in the data set with Myzus persicae [4]. Besides, the “efficacy (kill in %)” value came out at 80% in the data set on Ctenocephalides felis [2], 90% in the data set on Lucilia cuprina and 100% with Musca domestica.

`Cc1ccc[n+]2c([O-])c(C(=O)C(F)(F)C(F)F)n(Cc3cnc(Cl)s3)c12` [Example I-063]: the pest or weed control at 4 ppm with Myzus persicae [3] (application rate 4 ppm) was 100%. In the data set with Phaedon cochleariae, the pest or weed control at 500 g/ha worked out at 100%. In addition, the efficacy in the data set on Spodoptera frugiperda worked out at 100%.

For the compound `COCCOC(=O)C(=O)c1c([O-])[n+]2ccccc2n1Cc1cnc(Cl)s1` [Example I-050], the efficacy with Myzus persicae [3] (application rate 4 ppm) stood at 100%; with Myzus persicae [4], 100%; with Tetranychus urticae it was 90%.
